The values below come from ChEMBL document CHEMBL1155836, “Discovery of imidazole carboxamides as potent and selective CCK1R agonists” (Bioorg Med Chem Lett, 2008).

Molecules are shown by their SMILES. Activity calls are given as the source filed them. The rule behind the calls is not given here.

One series addresses T1, Cholecystokinin receptor type A (Homo sapiens, UniProt P32238).
T1 sequence (P32238 whole entry): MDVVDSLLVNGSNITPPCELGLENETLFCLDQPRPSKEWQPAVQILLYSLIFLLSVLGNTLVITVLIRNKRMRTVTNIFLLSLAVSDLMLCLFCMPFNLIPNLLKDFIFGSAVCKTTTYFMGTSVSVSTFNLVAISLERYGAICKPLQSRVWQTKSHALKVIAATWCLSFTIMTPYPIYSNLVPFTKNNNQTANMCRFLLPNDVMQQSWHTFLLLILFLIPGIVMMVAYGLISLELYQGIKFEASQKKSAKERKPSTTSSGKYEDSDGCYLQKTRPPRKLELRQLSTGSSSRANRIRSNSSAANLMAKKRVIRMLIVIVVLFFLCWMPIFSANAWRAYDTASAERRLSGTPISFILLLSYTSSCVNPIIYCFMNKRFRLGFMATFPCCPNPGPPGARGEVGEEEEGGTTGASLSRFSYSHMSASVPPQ
The series is described as follows: Inhibition of human CCK1 receptor.
Settings: not given
Broadly, the IC50 is the concentration that gives 50% inhibition. For the compound `CCOc1cccc(-n2cc(C(=O)N3CCN(c4cc(C(=O)O)c5ccccc5c4)CC3)nc2-c2ccc(F)cc2F)c1`, the IC50 was 0.07 nM.
Same read-out and setting: the same measure for `CCOc1cccc(-n2cc(C(=O)N3CCN(c4cc(C(=O)O)c5ccccc5c4)CC3)nc2-c2ccc(F)cc2)c1` [listing 1 of 2 here]: 0.08 nM; for `COc1cccc(-n2cc(C(=O)N3CCN(c4ccc5ncccc5c4)CC3)nc2-c2ccc(C)cc2)c1`: 8.6 nM.
Same read-out and setting: the same measure for `CCOc1cccc(-n2cc(C(=O)N3CCN(c4cnc5ccccc5c4)CC3)nc2-c2ccc(F)cc2)c1`: 0.6 nM; for `COc1cccc(-n2cc(C(=O)N3CCN(c4cnc5ccccc5c4)CC3)nc2-c2ccc(C)cc2)c1`: 1.3 nM.
Take `CCOc1cccc(-n2cc(C(=O)N3CCN(c4ccc5ccccc5c4)CC3)nc2-c2ccccc2F)c1`: the midpoint of inhibition, the IC50, lay at 1.9 nM.
As to `O=C(O)c1cc(N2CCN(C(=O)c3cn(-c4ccc5c(c4)OCCO5)c(-c4ccc(F)cc4)n3)CC2)cc2ccccc12` [listing 1 of 2 here], the IC50 was determined as 0.03 nM.

A further series concerns the target T2, Gastrin/cholecystokinin type B receptor (Homo sapiens) (UniProt P32239).
T2 sequence (whole entry): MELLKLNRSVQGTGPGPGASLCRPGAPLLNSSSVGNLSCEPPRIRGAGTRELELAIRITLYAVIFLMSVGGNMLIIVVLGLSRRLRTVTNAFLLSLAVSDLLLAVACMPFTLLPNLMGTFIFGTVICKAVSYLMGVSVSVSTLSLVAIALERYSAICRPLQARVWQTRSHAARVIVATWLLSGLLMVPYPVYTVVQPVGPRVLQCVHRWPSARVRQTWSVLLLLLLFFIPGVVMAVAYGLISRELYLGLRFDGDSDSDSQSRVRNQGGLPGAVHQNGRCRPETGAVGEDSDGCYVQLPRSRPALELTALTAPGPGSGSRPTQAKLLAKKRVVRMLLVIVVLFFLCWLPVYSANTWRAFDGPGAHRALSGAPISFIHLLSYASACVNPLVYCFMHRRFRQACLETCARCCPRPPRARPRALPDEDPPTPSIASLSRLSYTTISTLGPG
Kind of series: Agonist activity against human CCK2 receptor assessed as receptor activation at 10000 nM. The format is functional.
Settings: not given
In the case of `CCOc1cccc(-n2cc(C(=O)N3CCN(c4cc(C(=O)O)c5ccccc5c4)CC3)nc2-c2ccc(F)cc2)c1` [listing 2 of 2 here], the Activity was under 36%.
Same read-out and setting: under `O=C(O)c1cc(N2CCN(C(=O)c3cn(-c4ccc5c(c4)OCCO5)c(-c4ccc(F)cc4)n3)CC2)cc2ccccc12` [listing 2 of 2 here] stands under 36%; under `CCOc1cccc(-n2cc(C(=O)N3CCN(c4cc(C(=O)O)c5ccccc5c4)CC3)nc2-c2ccc(F)cc2F)c1`, under 36%; under `COc1cccc(-n2cc(C(=O)N3CCN(c4ccc5ncccc5c4)CC3)nc2-c2ccc(C)cc2)c1`, under 20%.
Take `CCOc1cccc(-n2cc(C(=O)N3CCN(c4cnc5ccccc5c4)CC3)nc2-c2ccc(F)cc2)c1`: the Activity was under 36%.
The same measure, in the same setting: under `COc1cccc(-n2cc(C(=O)N3CCN(c4cnc5ccccc5c4)CC3)nc2-c2ccc(C)cc2)c1` stands under 20%; under `CCOc1cccc(-n2cc(C(=O)N3CCN(c4ccc5ccccc5c4)CC3)nc2-c2ccccc2F)c1`, under 12%.

In the next series the target is Cholecystokinin receptor type A (Mus musculus, UniProt O08786). The series is described as follows: Agonist activity against mouse CCK1 receptor. Type of series: functional.
Cholecystokinin receptor type A (Mus musculus, UniProt O08786), sequence (O08786 whole entry, looked up): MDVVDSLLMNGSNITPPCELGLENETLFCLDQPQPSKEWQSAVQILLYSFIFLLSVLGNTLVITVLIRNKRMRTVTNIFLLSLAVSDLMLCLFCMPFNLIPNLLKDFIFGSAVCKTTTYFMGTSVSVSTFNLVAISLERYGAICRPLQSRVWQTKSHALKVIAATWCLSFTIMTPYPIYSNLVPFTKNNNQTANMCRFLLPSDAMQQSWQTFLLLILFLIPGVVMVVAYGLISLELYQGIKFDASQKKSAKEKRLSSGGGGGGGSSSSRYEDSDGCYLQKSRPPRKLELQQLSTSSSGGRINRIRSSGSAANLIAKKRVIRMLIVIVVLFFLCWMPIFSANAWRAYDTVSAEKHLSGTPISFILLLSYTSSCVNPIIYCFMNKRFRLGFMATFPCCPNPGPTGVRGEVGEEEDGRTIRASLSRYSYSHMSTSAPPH
Settings: not given
As usually defined, the EC50 is the concentration that produces a half-maximal response. Compound `CCOc1cccc(-n2cc(C(=O)N3CCN(c4cnc5ccccc5c4)CC3)nc2-c2ccc(C)cc2)c1` gave an EC50 of 2.1 nM.
Compound `CCOc1cccc(-n2cc(C(=O)N3CCN(c4cc(C(=O)O)c5ccccc5c4)CC3)nc2-c2ccc(F)cc2)c1.O=C(O)C(F)(F)F` had an EC50 of 1.5 nM.

The target in another series is T2, Gastrin/cholecystokinin type B receptor (Homo sapiens). Kind of series: Inhibition of human CCK2 receptor at 10000 nM.
Settings: not given
The term inhibition denotes the percentage by which the read-out fell short of the control. The compound `CCOc1cccc(-n2cc(C(=O)N3CCN(c4cc(C(=O)O)c5ccccc5c4)CC3)nc2-c2ccc(F)cc2)c1` [listing 2 of 2 here] gave an inhibition of under 24%.
Compound `O=C(O)c1cc(N2CCN(C(=O)c3cn(-c4ccc5c(c4)OCCO5)c(-c4ccc(F)cc4)n3)CC2)cc2ccccc12` [listing 2 of 2 here] yielded an inhibition of under 24%.
Same read-out and setting: the same measure for `CCOc1cccc(-n2cc(C(=O)N3CCN(c4cc(C(=O)O)c5ccccc5c4)CC3)nc2-c2ccc(F)cc2F)c1`: under 24%; for `CCOc1cccc(-n2cc(C(=O)N3CCN(c4cnc5ccccc5c4)CC3)nc2-c2ccc(F)cc2)c1`: under 24%.

A further series relates to Mus musculus. Kind of series: Gallbladder emptying activity in mouse assessed as reduction of gallbladder weight at 0.001 mg/kg, po. The format is functional. On the set-up: scale not given: the % may be the effect or the level left.
Settings: not given
With `CCOc1cccc(-n2cc(C(=O)N3CCN(c4cc(C(=O)O)c5ccccc5c4)CC3)nc2-c2ccc(F)cc2)c1.O=C(O)C(F)(F)F`, the Activity came out at 69%.

The target in the next series is T1, Cholecystokinin receptor type A. The series is described as follows: Agonist activity against human CCK1 receptor.
Settings: not given
The format is functional.
On to `CCOc1cccc(-n2cc(C(=O)N3CCN(c4cc(C(=O)O)c5ccccc5c4)CC3)nc2-c2ccc(F)cc2F)c1`, for which it took 0.053 nM to reach a half-maximal effect (EC50).
Still for that read-out and setting: under `CCOc1cccc(-n2cc(C(=O)N3CCN(c4cc(C(=O)O)c5ccccc5c4)CC3)nc2-c2ccc(F)cc2)c1` [listing 1 of 2 here] stands 0.048 nM.
The same measure, in the same setting: under `COc1cccc(-n2cc(C(=O)N3CCN(c4ccc5ncccc5c4)CC3)nc2-c2ccc(C)cc2)c1` stands 9.3 nM.
Turning to `CCOc1cccc(-n2cc(C(=O)N3CCN(c4cnc5ccccc5c4)CC3)nc2-c2ccc(F)cc2)c1`, the response was half-maximal at 0.25 nM (EC50).
Still for that read-out and setting: under `COc1cccc(-n2cc(C(=O)N3CCN(c4cnc5ccccc5c4)CC3)nc2-c2ccc(C)cc2)c1` stands 1.1 nM; under `CCOc1cccc(-n2cc(C(=O)N3CCN(c4ccc5ccccc5c4)CC3)nc2-c2ccccc2F)c1`, 6.3 nM; under `O=C(O)c1cc(N2CCN(C(=O)c3cn(-c4ccc5c(c4)OCCO5)c(-c4ccc(F)cc4)n3)CC2)cc2ccccc12` [listing 1 of 2 here], 0.093 nM.

Test system in the next series: not listed separately
Kind of series: Half life in mouse at 1.0 mg/kg, iv and 10 mg/kg, po. Type of series: ADME, organism-based. The note with it: in vivo.
For orientation: half-life means the time in which the quantity being followed falls by half. As to `CCOc1cccc(-n2cc(C(=O)N3CCN(c4cc(C(=O)O)c5ccccc5c4)CC3)nc2-c2ccc(F)cc2)c1` [listing 1 of 2 here], the half-life is 2.7 h.

Test system in a further series: not listed separately
Kind of series: Cmax in mouse at 1.0 mg/kg, iv and 10 mg/kg, po. Type of series: ADME, organism-based. The note with it: in vivo.
As usually defined, the Cmax is the maximum level reached in the sampled fluid or tissue. `CCOc1cccc(-n2cc(C(=O)N3CCN(c4cc(C(=O)O)c5ccccc5c4)CC3)nc2-c2ccc(F)cc2)c1` [listing 1 of 2 here] registered a Cmax of 1100 nM.

Test system in a further series: not listed separately
The series is described as follows: Volume of distribution in mouse at 1.0 mg/kg, iv and 10 mg/kg, po. The conditions noted are these: in vivo. The format is ADME, organism-based.
In turn, `CCOc1cccc(-n2cc(C(=O)N3CCN(c4cc(C(=O)O)c5ccccc5c4)CC3)nc2-c2ccc(F)cc2)c1` [listing 1 of 2 here] had a Vd of 0.73 L/kg.

Test system in the next series: not listed separately
The series is described as follows: Clearance in mouse at 1.0 mg/kg, iv and 10 mg/kg, po. The format is ADME, organism-based. The conditions noted are these: in vivo.
On to `CCOc1cccc(-n2cc(C(=O)N3CCN(c4cc(C(=O)O)c5ccccc5c4)CC3)nc2-c2ccc(F)cc2)c1` [listing 1 of 2 here], for which the clearance was 6.4 mL/min/kg.

The next series deals with T2, Gastrin/cholecystokinin type B receptor (Homo sapiens). The series is described as follows: Agonist activity against human CCK2 receptor. The format is functional.
Settings: not given
Take `CCOc1cccc(-n2cc(C(=O)N3CCN(c4cc(C(=O)O)c5ccccc5c4)CC3)nc2-c2ccc(F)cc2)c1` [listing 2 of 2 here]: the outcome was inactive.
Same read-out and setting: under `O=C(O)c1cc(N2CCN(C(=O)c3cn(-c4ccc5c(c4)OCCO5)c(-c4ccc(F)cc4)n3)CC2)cc2ccccc12` [listing 2 of 2 here] stands “inactive”; under `CCOc1cccc(-n2cc(C(=O)N3CCN(c4cc(C(=O)O)c5ccccc5c4)CC3)nc2-c2ccc(F)cc2F)c1`, “inactive”; under `COc1cccc(-n2cc(C(=O)N3CCN(c4ccc5ncccc5c4)CC3)nc2-c2ccc(C)cc2)c1`, “inactive”.
Regarding `CCOc1cccc(-n2cc(C(=O)N3CCN(c4cnc5ccccc5c4)CC3)nc2-c2ccc(F)cc2)c1`, the outcome was inactive.
The same measure, in the same setting: under `COc1cccc(-n2cc(C(=O)N3CCN(c4cnc5ccccc5c4)CC3)nc2-c2ccc(C)cc2)c1` stands “inactive”.
Still for that read-out and setting: under `CCOc1cccc(-n2cc(C(=O)N3CCN(c4ccc5ccccc5c4)CC3)nc2-c2ccccc2F)c1` stands “inactive”.

In a further series the target is T3, Gastrin/cholecystokinin type B receptor (Homo sapiens, UniProt P32239).
T3 sequence (P32239 whole entry): T2 sequence (whole entry)
The series is described as follows: Inhibition of human CCK2 receptor.
Settings: not given
As to `CCOc1cccc(-n2cc(C(=O)N3CCN(c4cc(C(=O)O)c5ccccc5c4)CC3)nc2-c2ccc(F)cc2F)c1`, the IC50 is over 10000 nM.
On the same count and under the same terms, the same measure for `CCOc1cccc(-n2cc(C(=O)N3CCN(c4cc(C(=O)O)c5ccccc5c4)CC3)nc2-c2ccc(F)cc2)c1` [listing 1 of 2 here]: over 10000 nM; for `CCOc1cccc(-n2cc(C(=O)N3CCN(c4cnc5ccccc5c4)CC3)nc2-c2ccc(F)cc2)c1`: over 10000 nM.
In the case of `O=C(O)c1cc(N2CCN(C(=O)c3cn(-c4ccc5c(c4)OCCO5)c(-c4ccc(F)cc4)n3)CC2)cc2ccccc12` [listing 1 of 2 here], the IC50 was over 10000 nM.

For the next series, the target named is T4, Cholecystokinin receptor type A (Homo sapiens) (UniProt P32238).
T4 sequence (whole entry): T1 sequence (P32238 whole entry)
The series is described as follows: Agonist activity against human CCK1 receptor assessed as receptor activation at 10000 nM. The format is functional.
Settings: not given
As to `CCOc1cccc(-n2cc(C(=O)N3CCN(c4cc(C(=O)O)c5ccccc5c4)CC3)nc2-c2ccc(F)cc2)c1` [listing 2 of 2 here], the Activity was found to be 95%.
With `O=C(O)c1cc(N2CCN(C(=O)c3cn(-c4ccc5c(c4)OCCO5)c(-c4ccc(F)cc4)n3)CC2)cc2ccccc12` [listing 2 of 2 here], the Activity stood at 97%.
The same measure, in the same setting: the same measure for `CCOc1cccc(-n2cc(C(=O)N3CCN(c4cc(C(=O)O)c5ccccc5c4)CC3)nc2-c2ccc(F)cc2F)c1`: 76%.
In the case of `COc1cccc(-n2cc(C(=O)N3CCN(c4ccc5ncccc5c4)CC3)nc2-c2ccc(C)cc2)c1`, the Activity was 108%.
On the same count and under the same terms, under `CCOc1cccc(-n2cc(C(=O)N3CCN(c4cnc5ccccc5c4)CC3)nc2-c2ccc(F)cc2)c1` stands 92%; under `COc1cccc(-n2cc(C(=O)N3CCN(c4cnc5ccccc5c4)CC3)nc2-c2ccc(C)cc2)c1`, 92%; under `CCOc1cccc(-n2cc(C(=O)N3CCN(c4ccc5ccccc5c4)CC3)nc2-c2ccccc2F)c1`, 110%.

Test system in the next series: not listed separately
Kind of series: Oral bioavailability in mouse at 10 mg/kg. Type of series: ADME, organism-based. The note with it: in vivo.
The bioavailability is dose-corrected exposure relative to a reference, in per cent. Regarding `CCOc1cccc(-n2cc(C(=O)N3CCN(c4cc(C(=O)O)c5ccccc5c4)CC3)nc2-c2ccc(F)cc2)c1` [listing 1 of 2 here], the bioavailability was 33%.

For another series, the system named is Mus musculus. The series is described as follows: Reduction in overnight food intake in lean mouse at 3 mg/kg, po. Type of series: functional. Also noted: scale not given: the % may be the effect or the level left.
Settings: not given
Take `CCOc1cccc(-n2cc(C(=O)N3CCN(c4cc(C(=O)O)c5ccccc5c4)CC3)nc2-c2ccc(F)cc2)c1.O=C(O)C(F)(F)F`: the Activity came to 73%.
